Reference: patent US8557823B2, “Family of PFKFB3 inhibitors with anti-neoplastic activities” (Advanced Cancer Therapeutics, LLC, priority 2007, dated 2013)
Values after ≈ are worked out from the molar mass of the structure shown.

Key:
Jurkat cells = experiment: Inhibition of 2-deoxyglucose uptake, Example 14; format: cell-based; conditions: Homo sapiens, 3 hours
Method: Inhibition of PFKFB3 results in inhibiting glycolysis. Several feedback or feedforward activation and inhibition mechanisms exist so that, by a feedback mechanism, inhibiting the activity of PFKFB3 might inhibit glucose uptake by cells. An assay was developed to determine if there was inhibition of glucose uptake following exposure to the compounds on the invention. Briefly, Jurkat cells were plated at 1×10^5/mL in RPMI 1640 supplemented with 10% fetal bovine serum and 50 μg/mL gentamicin sulfate. Cells were immediately treated with vehicle or 0.5 μmol/L of the compound of the invention for 3 hours and subsequently placed in glucose-free RPMI 1640 for 30 min. ^14C-2-deoxyglucose (0.25 μCi/mL; Perkin Elmer) was added for an additional 60 min and cells were then washed three times with ice-cold RPMI 1640 containing no glucose. Cell lysates were collected in 500 μL of 0.1% SDS, and scintillation counts (counts/min) were measured on 400 μL of lysate. Counts were normalized to protein concentration.

MiaPaca = experiment: MTT assay 48 hours, MiaPaca; format: cell-based; conditions: Homo sapiens, MIA PaCa-2
Method: (§1) The ability of the compounds described herein to kill or inhibit the proliferation of cancer cells was measured using either the MTT assay, the Alamar Blue assay, or the Cell Titer Glow® assay using 48 or 72 hours exposure. […] The procedures are briefly described below. Cells of the desired tumor cell line were plated at 2×10^5 cells/ml in 96 well plates. Twice the indicated concentrations of the compounds of the invention were added to cells the following day in an equal volume of media. 72 hours later, cells were lysed and subjected to ATP determination using the CellTiter Glo-Luminescent Cell Viability Assay kit (Promega, Madison, Wis.). Experiments were done in triplicate. When using the MTT assay or the Alamar blue assay, the experimental conditions are essentially similar; at the end of the incubation period, 20 microl of the MTT solution is added per well and the samples are incubated for an additional four hours, rinsed and the absorbance at 570 nm measured. Results for the inhibition of cells proliferation are reported as IC50 as commonly done (the concentration leading to a 50% inhibition of proliferation of the cell population) and are listed in the Tables below. Table 4 lists the IC50 for the compounds of the invention in several cell lines including Jurkat, Calu-6, NCI-H82, U937, or NCI-H1437 cancer cell lines. Table 5 lists the IC50 of PFK-070 in a panel of 10 cell lines.

A549 = experiment: MTT assay 48 hours, A549; format: cell-based; conditions: Homo sapiens
Method: as §1

[1] = Microsomal stability in human liver microsomes; format: in vitro ADME; conditions: 0 min
Method: Microsomal stability in vitro in different biologic media (liver microsomes, S9 fraction, hepatocytes) and species is ascertained to evaluate the rate at which a compound undergoes metabolism in the experimental in vitro conditions. […] Experimental conditions are briefly described here: the stability in human liver microsomes of several compounds was done over […] at 37° C. using pooled mixed gender human liver microsomes. These liver microsomes were prepared at 1.0 mg/ml of microsomal protein in a 100 mM potassium phosphate pH 7.4 buffer with 1 mM NADPH. The media was incubated at 37° C. with the compound in solution in DMSO. The concentration of the compound was followed by LC/MS-MS as a function of time. […] Testosterone was used as a positive control. The same experiment was performed with mouse, rat or dog liver microsomes instead of human liver microsomes.

NCI-H1437 = experiment: Cancer cell proliferation, Alamar Blue assay 72 hours, NCI-H1437; format: cell-based; conditions: Homo sapiens
Method: as §1

Jurkat = experiment: Cancer cell proliferation, Alamar Blue assay 72 hours, Jurkat; format: cell-based; conditions: Homo sapiens, Jurkat, 72 h
Method: as §1

SK-N-SH = experiment: MTT assay 48 hours, SK-N-SH; format: cell-based; conditions: Homo sapiens
Method: as §1

SK-BR-3 = experiment: MTT assay 48 hours, SK-BR-3; format: cell-based; conditions: Homo sapiens, SK-BR-3, MTT assay
Method: as §1

LnCap = experiment: MTT assay 48 hours, LnCap; format: cell-based; conditions: Homo sapiens
Method: as §1

U87MG = experiment: MTT assay 48 hours, U87MG; format: cell-based; conditions: Homo sapiens, U-87 MG
Method: as §1

Calu-6 = experiment: Cancer cell proliferation, Alamar Blue assay 72 hours, Calu-6; format: cell-based; conditions: Homo sapiens
Method: as §1

H22 = experiment: MTT assay 48 hours, H22; format: cell-based; conditions: Mus musculus
Method: as §1

[2] = Solubility in dosing solution Cre:EtOH:Saline; format: physicochemical; conditions: Cremophor:EtOH:Saline 5:5:90, aqueous with cosolvent or surfactant or cyclodextrin, kinetic from dmso stock; 5:5:90 Cremophor:EtOH:Saline, after 24 hours at room temperature
Source text: Chemical properties of the compounds of the invention were investigated, mainly the solubility in several solvents and pharmaceutically accepted excipients or dosing solutions and the stability of these solutions. […] The increase in solubility when comparing the effect of chemical substituents is unpredictable and surprising if one compares the solubility values of PFK-070 to PFK-091 and PFK-070 to PFK-141 and 145 in a dosing solution that could be used to treat cancer patients (See Table 8A below). Briefly, selected compounds of the invention are dissolved in a small volume of the solvents/excipients of interest (Cremophor, or Cremophor:etoh or Tween80:etoh) at room temperature and diluted 1:9 in saline and left at room temperature for over 8 or 24 hours. Both the physical (absence of a precipitate) and the chemical stability (less than 5% degradation) of the solutions are measured (observation and HPLC after filtration).

BT474 = experiment: MTT assay 48 hours, BT474; format: cell-based; conditions: Homo sapiens, BT-474
Method: as §1

NCI-H82 = experiment: Cancer cell proliferation, Alamar Blue assay 72 hours, NCI-H82; format: cell-based; conditions: Homo sapiens
Method: as §1

BX-PC-3 = experiment: MTT assay 48 hours, BX-PC-3; format: cell-based; conditions: Homo sapiens, BXPC-3, BX-PC-3, MTT assay
Method: as §1

U937 = experiment: Cancer cell proliferation, Alamar Blue assay 72 hours, U937; format: cell-based; conditions: Homo sapiens, U-937
Method: as §1

CT26 = experiment: MTT assay 48 hours, CT26; format: cell-based, murine; conditions: Mus musculus
Method: as §1

HL-60 leukemia cells = experiment: In vitro growth inhibition, HL-60; format: cell-based, human; conditions: 1, 3, 10, 33 μM
Method: (§2) The K562, HL-60, MDA-MB231, and melanoma (CRL-11174) human cancer cell lines were purchased from ATCC (American Tissue Type Culture Collection, Manassas, Va., United States of America). HeLa, A549, Lewis Lung Carcinoma, MDA-MB231, and melanoma cells were grown in Dulbecco's Modified Eagle Medium (DMEM) (Hyclone, Logan, Utah, United States of America) supplemented with 10% fetal bovine serum (Hyclone, Logan, Utah, United States of America) and 50 μg/mL gentamicin sulfate (Invitrogen, Carlsbad, Calif., United States of America). The HL-60, K562, and Jurkat cell lines were grown in RPMI-1640 medium (Hyclone, Logan, Utah, United States of America) supplemented with 10% fetal bovine serum and 50 μg/mL gentamicin sulfate. […]
(§3) Cells were collected 48 hours post-treatment, and cell number and viability were determined by trypan blue exclusion. […]

K562 leukemia cells = experiment: In vitro growth inhibition, K562; format: cell-based, human; conditions: 1, 3, 10, 33 μM
Method: as §2, §3

PFKFB3 = PFKFB3 (Homo sapiens, UniProt Q16875); experiment: PFKFB3 enzyme-coupled kinetics assay (pyruvate kinase/lactate dehydrogenase, NADH consumption); conditions: 150 μM
PFKFB3, sequence (Q16875 whole entry): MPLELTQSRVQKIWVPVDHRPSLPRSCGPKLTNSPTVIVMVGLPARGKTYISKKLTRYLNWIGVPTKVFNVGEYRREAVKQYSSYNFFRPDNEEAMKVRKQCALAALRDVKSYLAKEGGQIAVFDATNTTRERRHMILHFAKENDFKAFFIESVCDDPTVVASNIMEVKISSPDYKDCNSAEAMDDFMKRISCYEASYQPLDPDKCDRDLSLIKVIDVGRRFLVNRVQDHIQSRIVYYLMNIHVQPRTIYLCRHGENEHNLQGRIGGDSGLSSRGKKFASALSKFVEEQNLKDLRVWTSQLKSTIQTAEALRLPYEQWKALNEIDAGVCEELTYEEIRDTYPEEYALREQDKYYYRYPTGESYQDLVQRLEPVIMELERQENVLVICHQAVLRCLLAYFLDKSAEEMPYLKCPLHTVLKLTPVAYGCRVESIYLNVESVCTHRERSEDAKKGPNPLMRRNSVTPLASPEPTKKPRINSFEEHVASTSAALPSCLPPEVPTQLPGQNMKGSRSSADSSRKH
Method: PFKFB3 activity was measured by an enzyme-coupled kinetics assay incorporating pyruvate kinase and lactate dehydrogenase as previously described. […] The assay measures NADH consumption spectrophotometrically as a loss of absorption at 340 nm with stoichiometry of 1 mol ATP: 1 mol NADH consumed. Assays were carried out in 96 well plates at 37° in 200 μL final volume containing 1XPFKFB3 reaction buffer (100 mM Tris-HCl, 100 μM EDTA, 5 mM KH2PO4; pH=7.4), 420 μM phophoenolpyruvate (PEP), 5 mM ATP, 400 μM NADH, 613 units of pyruvate kinase (PK), 1092 units of lactate dehydrogenase (LDH), increasing concentrations of fructose-6-phosphate (40-400 μM), and 15 μg of purified PFKFB3. […] Assays were measured using a BioTek POWERWAVE™ plate reader (BioTek Instruments, Inc., Winooski, Vt., United States of America) in kinetics mode over 15 minute periods to determine kinetic rate of PFKFB3. The enzyme kinetics module for SigmaPlot® 9.0 (SYSTAT Software, Inc., San Jose, Calif., United States of America) was used to calculate the kinetic parameters for PFKFB3 and 1 inhibition (Vmax, Km, and Ki). The Vmax is expressed in specific activity of PFKFB3 as nmol F6P×min^−1×mg^−1. […] The data represented are the mean±STD from triplicate measurements from two independent experiments.

glycolysis = conditions: cited from earlier work

Mean metabolized (%) [1] [%]	IC50 (NCI-H1437) [nM]	IC50 (Jurkat) [nM]	IC50 (Calu-6) [nM]	solubility at 24 h [2] [µg/mL]	IC50 (NCI-H82) [nM]	IC50 (U937) [nM]	Compound	inhibition at 0.5 µM (Jurkat cells) [%]	further results
0	29300	1300	7400	100 (≈ 362 µM)	4000	3600	O=C(/C=C/c1ccc2cccc(O)c2n1)c1ccncc1 [ACT-PFK-070, 3-(8-Hydroxy-quinolin-2-yl)-1-pyridin-4-yl-propenone]	45	IC50 (MiaPaca): 275 nM; IC50 (A549): 2680 nM; IC50 (SK-N-SH): 1460 nM; IC50 (SK-BR-3): 1600 nM; IC50 (LnCap): 1280 nM; IC50 (U87MG): 1680 nM; IC50 (H22): 3940 nM; IC50 (BT474): 952 nM; IC50 (BX-PC-3): 1180 nM; IC50 (CT26): 2060 nM
–	–	6400	3300	–	4000	2500	O=C(/C=C/c1ccc2ccccc2n1)c1ccccc1 [ACT-PFK-076, 1-Phenyl-3-quinolin-2-yl-propenone]	27	–
–	–	4900	6900	–	2700	2900	O=C(/C=C/c1ccc2ccccc2n1)c1ccccn1 [ACT-PFK-085, 1-Pyridin-2-yl-3-quinolin-2-yl-propenone]	31	–
0	4200	600	200	200 (≈ 662 µM)	700	400	NC(=O)c1ccc(C(=O)/C=C/c2ccc3ccccc3n2)cc1 [ACT-PFK-091, 4-(3-Quinolin-2-yl-acryloyl)-benzamide]	11	–
–	–	–	–	–	–	–	O=C(/C=C/c1ccc(Cl)cc1)c1cccnc1 [Compound 2, 3-(4-chlorophenyl)-1-(3-pyridinyl)-2-propen-1-one]	–	cellular toxicity (HL-60 leukemia cells): dose-dependent cellular toxicity; cellular toxicity (K562 leukemia cells): dose-dependent cellular toxicity; kinetic rate of PFKFB3 reduced compared to vehicle (EtOH) (PFKFB3): 39.8%; kinetic rate of recombinant PFKFB3 as % of that with vehicle (EtOH) (PFKFB3): 39.8%
–	–	–	–	–	–	–	O=CC[C@@H](O)[C@H](O)[C@H](O)CO [Compound 2-DG, 2-deoxyglucose]	–	effective concentration of other inhibitors of glycolysis (glycolysis): low mM
